According to ChEMBL document CHEMBL1139938, “Syntheses and antibacterial activity of phendioxy substituted cyclic enediynes” (2007):
Converted amounts (≈) assume the structure as drawn. The source made the active and inactive calls. No cut-off for these calls is given here.

How the values were obtained:
Salmonella typhimurium [1] = test: Antibacterial activity against Salmonella Typhimurium isolate; assay type: functional, Salmonella enterica subsp. enterica serovar Typhimurium; settings: Salmonella enterica
Staphylococcus aureus [2] = test: Antibacterial activity against Staphylococcus aureus isolate upto 512 ug/mL; assay type: functional, organism-based
Escherichia coli [3] = test: Antibacterial activity against Escherichia coli ATCC 25668; assay type: functional
Pseudomonas aeruginosa [4] = test: Antibacterial activity against Pseudomonas aeruginosa ATCC 11775 upto 512 ug/mL; assay type: functional, organism-based
Pseudomonas aeruginosa [5] = test: Antibacterial activity against Pseudomonas aeruginosa ATCC 11775; assay type: functional
Staphylococcus aureus [6] = test: Antibacterial activity against Staphylococcus aureus isolate; assay type: functional
Escherichia coli [7] = test: Antibacterial activity against Escherichia coli ATCC 25668 upto 512 ug/mL; assay type: functional, organism-based
Salmonella typhimurium [8] = test: Antibacterial activity against Salmonella Typhimurium isolate upto 512 ug/mL; assay type: functional, organism-based; settings: Salmonella enterica subsp. enterica serovar Typhimurium

Structure (SMILES) | MIC (Salmonella typhimurium [1]) [µg/mL] | Activity (Staphylococcus aureus [2]) | MIC (Escherichia coli [3]) [µg/mL] | Activity (Pseudomonas aeruginosa [4]) | MIC (Pseudomonas aeruginosa [5]) [µg/mL] | MIC (Staphylococcus aureus [6]) [µg/mL] | Activity (Escherichia coli [7]) | Activity (Salmonella typhimurium [8])
C1#CCOc2cccc(c2)OCC#C/C=C\1 | 8 (≈ 38.1 µM) | inactive | 4 (≈ 19 µM) | inactive |  |  |  | 
Clc1ccc(NCc2ccc3cc2OCC#C/C=C\C#CCO3)cc1 | 512 (≈ 1460 µM) | inactive | 64 (≈ 183 µM) | inactive |  |  |  | 
C1#CCOc2ccc(CNc3ccccc3)c(c2)OCC#C/C=C\1 | 16 (≈ 50.7 µM) |  | 4 (≈ 12.7 µM) |  | 16 (≈ 50.7 µM) | 8 (≈ 25.4 µM) |  | 
C#CCOc1cccc(OCC#C)c1 | > 1000 |  | > 1000 |  | > 1000 | > 1000 |  | 
Cc1ccc(NCc2ccc3cc2OCC#C/C=C\C#CCO3)cc1 | 128 (≈ 389 µM) |  | 4 (≈ 12.1 µM) |  | 32 (≈ 97.1 µM) | 16 (≈ 48.6 µM) |  | 
C1#CCOc2ccc(/C=N/c3ccccc3)c(c2)OCC#C/C=C\1 | 64 (≈ 204 µM) |  | 128 (≈ 408 µM) |  | 128 (≈ 408 µM) | 128 (≈ 408 µM) |  | 
Brc1ccc(/N=C/c2ccc3cc2OCC#C/C=C\C#CCO3)cc1 | 128 (≈ 326 µM) | inactive |  | inactive |  |  | inactive | 
O=Cc1ccc2cc1OCC#C/C=C\C#CCO2 | 128 (≈ 537 µM) |  | 256 (≈ 1070 µM) | inactive |  | 8 (≈ 33.6 µM) |  | 
OCc1ccc2cc1OCC#C/C=C\C#CCO2 | 128 (≈ 533 µM) |  | 8 (≈ 33.3 µM) | inactive |  | 4 (≈ 16.6 µM) |  | 
Cc1ccc(/N=C/c2ccc3cc2OCC#C/C=C\C#CCO3)cc1 | 128 (≈ 391 µM) | inactive | 256 (≈ 782 µM) | inactive |  |  |  | 
CN(C)[C@@H]1C(O)=C(C(N)=O)C(=O)[C@@]2(O)C(O)=C3C(=O)c4c(O)cccc4[C@@](C)(O)[C@H]3C[C@@H]12 [TETRACYCLINE] | 0.5 (≈ 1.13 µM) |  | 2 (≈ 4.5 µM) |  | 1 (≈ 2.25 µM) | 2 (≈ 4.5 µM) |  | 
C#CCOc1ccc(C=O)c(OCC#C)c1 | > 1000 |  | > 1000 |  | > 1000 | > 1000 |  | 
Brc1ccc(NCc2ccc3cc2OCC#C/C=C\C#CCO3)cc1 |  | inactive | 128 (≈ 325 µM) | inactive |  |  |  | inactive
